Reference: patent US12344587B2, “Synthetic retinoids for use in RAR activation” (UNIVERSITY OF DURHAM, priority 2019, dated 2025)
Values after ≈ are worked out from the molar mass of the structure shown.

Experiments:
SH-SY5Y cells = assay: Induction of neurite outgrowth; type: cell-based; settings: 10 nM, 5 days; for fold induction at 0.01 µM: Homo sapiens, 120 h, read-out: Neurite Outgrowth Fold increase
Description: SY—SY5Y cells were plated at 10,000 cells/well in 12-well plates containing acid-treated/poly-L-lysine-coated coverslips. After 24 hours, each retinoid was added to the medium at a concentration of 10 nM and the plates were incubated for 5 days. After retinoid treatment, SH-SY5Y cells on coverslips were washed twice in PBS, fixed in 4% paraformaldehyde (PFA) for 20 minutes at room temperature, and washed twice with PBS.
For immunocytochemical staining of neurites, cells on coverslips were washed three times in PBS, and incubated in blocking solution (10% donkey serum and 0.1% triton X-100 in PBS) for 1 hour at room temperature. Cells were then labelled by incubation overnight at 4° C. with β-III tubulin primary antibody (Sigma-Aldrich) diluted 1:1000 in blocking buffer. Following incubation overnight, cells were washed three times with PBS containing 0.1% Triton X-100 solution (PBST) before incubation with anti-mouse monoclonal secondary antibody (1:300 in PBST; Jackson Immunoresearch) for 2 hours at room temperature. Finally, after three washes in PBST and a final wash in PBS, the coverslips were mounted on slides and stored at 4° C.
ImageJ software with the NeuronJ plugin was used to quantify neurite outgrowth on stained cells. For each experiment, 10 different randomly selected images were taken from each cover slip using a Nikon Eclipse E400 fluorescence microscope. Each image was converted into an 8-bit image (necessary for the NeuronJ plugin) and optimised with the brightness and contrast tool in GIMP (GNU Image Manipulation Program). For each image, individual traces were drawn for each clearly-identifiable neurite using the tracing tool in the NeuronJ plugin. Neurite length was measured in pixels and transformed into the corresponding length in μm depending on the magnification used. The average neurite length for each image was calculated by dividing total neurite length by the total number of neurites per image. Ten images per cover slip were measured and the mean calculated for the coverslip overall. Coverslips were in triplicate for each retinoid and concentration.

[1] = Turbidimetric aqueous solubility; type: physicochemical; settings: aqueous buffer, kinetic from dmso stock, 0.01 M phosphate buffered saline pH 7.4, 1% DMSO, 37° C.
Description: Test compound (10 mM in DMSO) is serially diluted to give solutions of 0.1, 0.3, 1 and 3 mM in DMSO. Each test compound concentration is then further diluted 1 in 100 in buffer (0.01 M phosphate buffered saline pH 7.4) so that the final DMSO concentration was 1% and the final test compound concentrations were 1, 3, 10, 30 and 100 μM. The experiment was performed at 37° C. and each concentration sample was incubated in 7 replicate wells. The plates were incubated for 2 hr at 37° C. before the absorbance was measured at 620 nm. The solubility of the sample was estimated from the concentration of test compound that produced an increase in absorbance above vehicle control (i.e., 1% DMSO in buffer).

MDR1 = assay: MDCK-MDR1 permeability assay; type: in vitro ADME; settings: dog, pH 7.4, 60 min
Description: Thus, this assay is a valuable in vitro surrogate for blood-brain permeability and CNS exposure
MDCK-MDR1 cells obtained from the NIH (Rockville, MD, USA) are used between passage numbers 6-30. Cells are seeded onto Millipore Multiscreen Transwell plates at 3.4×10^5 cells/cm^2. The cells are cultured in DMEM and media is changed on day 3. On day 4 the permeability study is performed. Cell culture and assay incubations are carried out at 37° C. in an atmosphere of 5% CO2 with a relative humidity of 95%. On the day of the assay, the monolayers are prepared by rinsing both apical and basolateral surfaces twice with Hanks Balanced Salt Solution (HBSS) at the desired pH warmed to 37° C. […] Test compound permeability is assessed in duplicate. […] Test and control compounds are quantified by LC-MS/MS cassette analysis using a 7-point calibration with appropriate dilution of the samples. The starting concentration (C0) is determined from the dosing solution and the experimental recovery calculated from C0 and both apical and basolateral compartment concentrations.
The permeability coefficient (Papp) for each compound is calculated from the following equation: […]
Where dQ/dt is the rate of permeation of the drug across the cells, C0 is the donor compartment concentration at time zero and A is the area of the cell monolayer. […] An efflux ratio (ER) is calculated from mean A-B and B-A data.

Structure (SMILES) | Average neurite length compared to cells treated with ATRA (SH-SY5Y cells) | fold induction at 0.01 µM (SH-SY5Y cells) | solubility at 2 h [1] | Papp at 60 min, 10 μM (MDR1) | efflux ratio at 60 min, 10 μM (MDR1; from mean A-B and B-A data, read-out: ER (efflux ratio))
CC1(C)CCC(C)(C)c2cc(C#Cc3ccc(C(=O)O)nc3)ccc21 [DC528, 5-[2-(5,5,8,8-tetramethyl-5,6,7,8-tetrahydronaphthalen-2-yl)ethynyl]pyridine-2-carboxylic acid] | significantly larger average neurite length | 2.2 | 20 µM (≈ 6.67 µg/mL) | – | –
CC1(C)CCC(C)(C)c2cc(C#Cc3ccc(C(=O)O)cc3F)ccc21 [DC526, 3-Fluoro-4-[2-(5,5,8,8-tetramethyl-5,6,7,8-tetrahydronaphthalen-2-yl)ethynyl]benzoic acid] | significantly larger average neurite length | 2.1 | 20 µM (≈ 7.01 µg/mL) | – | –
CC1(C)CCC(C)(C)c2nc(C#Cc3ccc(C(=O)O)cc3)cnc21 [DC645, 4-[2-(5,5,8,8-Tetramethyl-5,6,7,8-tetrahydroquinoxalin-2-yl)ethynyl]benzoic acid] | significantly larger average neurite length | 2.3 | > 100 µM | 34.9 ×10⁻⁶ cm/s | 0.6
